{
  "source": "paper PMC3841297",
  "about": "(Chemical biology & drug design, 2013)",
  "target": "SrtA (SrtAΔN59, residue 60–206) (Staphylococcus aureus, UniProt Q2FV99)",
  "experiment": "SrtA enzymatic inhibition, FRET assay",
  "format": "biochemical",
  "data": [
    {"molecule": "O=C(O)COc1ccccc1C1Nc2cccc3cccc(c23)N1", "note": "[Compound 1, (2-(2,3-dihydro-1H-perimidin-2-yl)-phenoxy)-acetic acid]", "values": [
      {"measurement": "IC50", "value": "47.2 ± 5.9", "unit": "µM"}
    ]}
  ]
}
